The source of these data is ChEMBL document CHEMBL4392829, “Synthesis and biological evaluation of 3-substituted 2-oxindole derivatives as new glycogen synthase kinase 3β inhibitors” (Bioorg Med Chem, 2019).

The term IC50 denotes the concentration needed to halve the response being measured.

SMILES strings stand for the structures. Calls of active or inactive are those of the source. No cut-off for these calls is given here.

For data set [1], the system named is A549. Nature of the data set: Cytotoxicity against human A549 cells assessed as reduction in cell viability measured after 72 hrs by MTT assay. It counts as cell-based. In general terms: Tetrazolium assays rely on reduction of a dye to a coloured formazan, in cell work by metabolically active cells.
In data set [2] the target is Glycogen synthase kinase-3 beta (Homo sapiens, UniProt P49841). The data set can be described thus: Inhibition of recombinant human GSK3beta using YRRAAVPPSPSLSRHSSPHQ(pS)EDEEE as substrate measured after 60 mins by ADP-Glo luminescence assay. In general terms: ADP-Glo first removes unused ATP, then detects ADP through luciferase.
Data set [3] concerns PBMC. The data set can be described thus: Cytotoxicity against human PBMC assessed as reduction in cell viability at 0.1 to 10 uM measured after 24 hrs by MTT assay. In kind it is cell-based.
For data set [4], the system named is PBMC. Nature of the data set: Cytotoxicity against human PBMC assessed as reduction in cell viability at 10 uM measured after 24 hrs by MTT assay. In kind it is cell-based.
Data set [5] concerns Rattus norvegicus. Nature of the data set: Antidiabetic activity in […]/STZ-induced obese type-2 diabetes Wistar rat model assessed as reduction in blood glucose level at 10 mg/kg, ip pretreated for 30 mins followed by glucose challenge and measured up to 120 mins by OGTT. It counts as functional, organism-based.
The test system of data set [6] is Rattus norvegicus. Nature of the data set: Antidiabetic activity in […]/STZ-induced obese type-2 diabetes Wistar rat model assessed as reduction in blood glucose level at 50 mg/kg, ip pretreated for 30 mins followed by glucose challenge and measured up to 120 mins by OGTT. It counts as functional, organism-based.
Where [7] appears, read: Homo sapiens, A549, 72 h, read-out: IC50.

Chain of Glycogen synthase kinase-3 beta (P49841 whole entry): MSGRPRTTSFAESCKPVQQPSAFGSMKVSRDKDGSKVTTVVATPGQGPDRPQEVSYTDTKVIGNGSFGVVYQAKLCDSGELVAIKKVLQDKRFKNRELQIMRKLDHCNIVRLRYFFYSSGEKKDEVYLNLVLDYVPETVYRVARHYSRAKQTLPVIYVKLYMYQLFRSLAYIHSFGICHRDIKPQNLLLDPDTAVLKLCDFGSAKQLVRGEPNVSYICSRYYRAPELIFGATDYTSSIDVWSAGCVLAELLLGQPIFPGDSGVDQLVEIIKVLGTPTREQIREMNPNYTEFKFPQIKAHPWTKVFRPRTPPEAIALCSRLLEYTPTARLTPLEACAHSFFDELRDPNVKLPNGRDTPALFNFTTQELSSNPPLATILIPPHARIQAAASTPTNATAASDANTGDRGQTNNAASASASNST

`O=C1Nc2ccccc2C12CC2c1ccccn1` (stereo not given): the IC50 in data set [1] (setting [7]) is > 100 µM; in data set [2], 1.23 µM. In addition, in data set [3], the Activity entry is reported as “Non-Toxic”.
For the compound `Cc1ccc(C(=O)CC2(O)C(=O)Nc3ccccc32)cc1` (stereo not given), the IC50 in data set [1] (setting [7]) is 171 µM; in data set [2] it was > 10 µM.
For the compound `O=C1Nc2ccc(Br)cc2C1=Cc1cccs1` (mixture of isomers), the IC50 was 427 µM in data set [1] (setting [7]) and > 10 µM in data set [2].
Take `O=C1Nc2ccc([N+](=O)[O-])cc2C1=Cc1cccnc1` (mixture of isomers): the 50% inhibitory concentration (IC50) in data set [1] (a549, read-out: IC50) was 429 µM; in data set [2], > 10 µM.
Regarding `COc1ccc2c(c1)C(O)(CC(=O)c1ccc(C)cc1)C(=O)N2` (stereo not given), the IC50 in data set [1] (setting [7]) was > 100 µM; in data set [2], > 10 µM.
The matching figures for `O=C1Nc2ccc(Br)cc2C1=Cc1ccc(Br)cc1` (mixture of isomers): 242 µM and > 10 µM.
With `O=C1Nc2ccccc2/C1=C/c1ccco1`, the IC50 in data set [1] (setting [7]) is 595 µM; in data set [2] it was > 10 µM.
The matching figures for `COc1ccc(C(=O)CC2(O)C(=O)Nc3ccccc32)cc1` (stereo not given): > 100 µM and > 10 µM.
As to `O=C1Nc2ccc(NC(=O)c3ccccc3)cc2/C1=C/c1ccc(O)cc1`, in data set [4], the Activity result is “Toxic”. In addition, the IC50 in data set [1] (a549, read-out: IC50) turned out to be 412 µM; in data set [2], 4.34 µM.
As to `COC(=O)Nc1ccc2c(c1)C(=Cc1ccc([N+](=O)[O-])cc1)C(=O)N2` (mixture of isomers), in data set [1] (a549, read-out: IC50), the IC50 was > 100 µM. For the same compound, the Activity result in data set [3] was “Non-Toxic”.
Consider `N#CCC1(O)C(=O)Nc2ccc(NC(=O)c3ccccc3)cc21` (stereo not given), for which, in data set [2], the IC50 is > 10 µM.
Turning to `O=C1Nc2ccc(Br)cc2/C1=C\c1ccccn1`, the IC50 in data set [1] (setting [7]) was 90.6 µM; in data set [2], > 10 µM.
The matching figures for `O=C1Nc2ccc(Br)cc2C1=Cc1ccco1` (mixture of isomers): 449 µM and > 10 µM.
`O=C1Nc2ccccc2C1=Cc1ccncc1` (mixture of isomers): the IC50 is 80.3 µM in data set [1] (setting [7]) and > 10 µM in data set [2].
As to `COc1cc(NC(C)=O)c2c(c1)C(CC#N)(OC(C)=O)C(=O)N2` (stereo not given), the IC50 in data set [2] is > 10 µM.
Same read-out and setting: with `COc1ccc2c(c1)/C(=C/C#N)C(=O)N2Cc1ccccc1` the figure was > 10 µM.
With `O=C1Nc2ccc(Br)cc2C1=Cc1cccnc1` (mixture of isomers), the half-maximal inhibitory concentration (IC50) in data set [1] (setting [7]) was 31.4 µM; in data set [2], > 10 µM.
The matching figures for `O=C1Nc2ccc(Br)cc2C1=Cc1ccncc1` (mixture of isomers): 22.3 µM and > 10 µM.
The matching figures for `Cc1ccc(C(=O)/C=C2\C(=O)Nc3ccccc32)cc1`: 18.7 µM and > 10 µM.
Turning to `CC(=O)Nc1ccc2c(c1)/C(=C/c1cccc(O)c1)C(=O)N2`, the values for the half-maximal inhibitory concentration (IC50) in data set [1] (setting [7]) and in data set [2] were 176 µM and > 10 µM, respectively.
For `CC[C@@]1(O)C(=O)OCc2c1cc1n(c2=O)Cc2cc3ccccc3nc2-1` [CAMPTOTHECIN], the 50% inhibitory concentration (IC50) in data set [1] (setting [7]) came out at 3.32 µM.
On to `N#C[C@@H]1CCCN1C(=O)CNC12CC3CC(CC(O)(C3)C1)C2`, for which, in data set [5], the outcome was Active.
As for `CCC(=O)Nc1cc(NC(=O)CC)c2c(c1)C(CC#N)(OC(=O)CC)C(=O)N2` (stereo not given), the half-inhibitory concentration (IC50) in data set [2] was > 10 µM.
With `COc1cccc2c1C(=O)c1c(O)c3c(c(O)c1C2=O)C[C@@](O)(C(=O)CO)C[C@@H]3O[C@H]1C[C@H](N)[C@H](O)[C@H](C)O1` [DOXORUBICIN], the half-inhibitory concentration (IC50) in data set [1] (setting [7]) came to 0.17 µM.
As to `O=C1Nc2ccc([N+](=O)[O-])cc2/C1=C\c1ccccn1`, the 50% inhibitory concentration (IC50) entry is “Non-Toxic” in data set [1] (a549) and 20 µM in data set [2].
For `O=C1Nc2ccccc2/C1=C/c1ccccn1`, the result in data set [6] was Active. Also, the IC50 in data set [1] (setting [7]) was determined as 48 µM; in data set [2], 0.00419 µM. Moreover, the Activity entry in data set [3] is “Non-Toxic”.
Take `COc1cccc2c1C(=O)c1c(O)c3c(c(O)c1C2=O)C[C@@](O)(C(C)=O)C[C@@H]3O[C@H]1C[C@H](N)[C@H](O)[C@H](C)O1` [DAUNORUBICIN]: the 50% inhibitory concentration (IC50) in data set [1] (setting [7]) is 0.15 µM.
Turning to `O=C1Nc2ccccc2C1=Cc1cccnc1` (mixture of isomers), the IC50 in data set [1] (a549, read-out: IC50) was 67.5 µM; in data set [2], > 10 µM.
For the compound `COC(=O)Nc1ccc2c(c1)/C(=C/c1ccc(O)cc1)C(=O)N2`, the IC50 in data set [1] (a549, read-out: IC50) turned out to be 44.4 µM. Moreover, the Activity entry in data set [3] is “Non-Toxic”.
With `O=C1Nc2ccc([N+](=O)[O-])cc2C1=Cc1ccncc1` (mixture of isomers), the IC50 result in data set [1] (a549) is “Non-Toxic”; in data set [2], > 10 µM.
Take `Cc1ccc(C(=O)CC2(O)C(=O)Nc3ccc(Br)cc32)cc1` (stereo not given): the half-maximal inhibitory concentration (IC50) in data set [1] (setting [7]) is > 100 µM; in data set [2] it was > 10 µM.
For `CC(=O)Nc1ccc2c(c1)C(CC(=O)O)(OC(C)=O)C(=O)N2` (stereo not given), in data set [2], the IC50 is > 10 µM.
For the compound `COc1ccc2c(c1)/C(=C/C(=O)O)C(=O)N2`, in data set [2], the 50% inhibitory concentration (IC50) was > 10 µM.
`COc1cc(/C=C2\C(=O)Nc3ccc(NC(C)=O)cc32)cc(OC)c1OC`: in data set [1] (a549, read-out: IC50), the half-inhibitory concentration (IC50) is 149 µM. Further, the Activity result in data set [3] is listed as “Non-Toxic”.
As to `COC(=O)Nc1ccc2c(c1)/C(=C/c1ccc(Br)cc1)C(=O)N2`, the half-inhibitory concentration (IC50) in data set [1] (setting [7]) was > 100 µM; in data set [2], > 10 µM.
In the same order, the values of `COc1ccc(C(=O)CC2(O)C(=O)Nc3ccc(Br)cc32)cc1` (stereo not given) are 474 µM and > 10 µM.
Regarding `O=C1Nc2ccccc2/C1=C/c1cccs1`, the half-maximal inhibitory concentration (IC50) was 491 µM in data set [1] (setting [7]) and > 10 µM in data set [2].
In the case of `O=C1Nc2ccc([N+](=O)[O-])cc2/C1=C/c1ccco1`, the 50% inhibitory concentration (IC50) in data set [1] (a549, read-out: IC50) is 329 µM; in data set [2], 12.8 µM.
